Measurements published in US20060234997A1, “Tetrahydro-pyridoazepin-8-ones and related compounds for the treatment of schizophrenia” (WARNER-LAMBERT COMPANY LLC, priority 2005, published 2006).
Where a name gives a salt, the structure may show the parent alone.

Tests used:
[1] = target: T1, Dopamine D2 receptor (hD2L) (Homo sapiens, UniProt P14416); test: Dopamine D2 Receptor Binding Assay ([3H]spiperone, CHO-hD2L membranes); settings: [3H]spiperone 0.4 nM, membrane preparation from CHO-hD2L cells
T1 construct: expressed in transfected cells; host or cells: CHO cells (CHO-hD2L)
T1 sequence (P14416 whole entry): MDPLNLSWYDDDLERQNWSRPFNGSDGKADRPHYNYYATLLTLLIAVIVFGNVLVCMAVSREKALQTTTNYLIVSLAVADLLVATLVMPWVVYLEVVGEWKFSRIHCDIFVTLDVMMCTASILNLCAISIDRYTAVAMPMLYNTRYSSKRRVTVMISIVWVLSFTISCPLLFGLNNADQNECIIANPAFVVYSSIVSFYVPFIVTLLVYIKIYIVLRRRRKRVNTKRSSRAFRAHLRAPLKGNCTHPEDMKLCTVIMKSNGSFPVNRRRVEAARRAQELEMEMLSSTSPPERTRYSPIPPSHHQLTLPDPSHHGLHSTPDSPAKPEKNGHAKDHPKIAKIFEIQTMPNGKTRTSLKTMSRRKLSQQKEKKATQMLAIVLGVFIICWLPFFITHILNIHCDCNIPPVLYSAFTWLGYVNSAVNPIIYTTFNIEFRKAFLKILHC
Source text: The ability of the novel compounds of this invention to bind to the dopamine D2 receptor can be determined using conventional radioligand receptor binding assays. All receptors can be heterologously expressed in cell lines and binding assays can be conducted in membrane preparations from the cell lines using procedures outlined below. IC50 concentrations can be determined by nonlinear regression of concentration-dependent reduction in specific binding. The Cheng-Prussoff equation can be used to convert the IC50 to Ki concentrations.
[^3H]Spiperone binding to a membrane preparation from CHO-hD2L cells was carried out in 250 μl of 50 mM Tris-HCl buffer containing 100 mM NaCl, 1 mM MgCl2 and 1% DMSO at pH 7.4. Duplicate samples containing (in order of addition) the test compounds, 0.4 nM [^3H]spiperone and approximately 12 μg protein were incubated for 120 minutes at room temperature. Bound radioligand was separated by rapid filtration under reduced pressure through Whatman GF/B glass fiber filters previously treated with 0.3% polyethyleneimine. Radioactivity retained on the filter is determined by liquid scintillation spectrophotometry.

Structure (SMILES) | melting point | Ki [1]
O=C1NCCc2ccc(OCCCCN3CCN(c4cccc5ccc(F)cc45)CC3)nc2N1 (as salt: HCl) [Example 18, 2-{4-[4-(7-Fluoro-naphthalen-1-yl)-piperazin-1-yl]-butoxy}-5,6,7,9-tetrahydro-1,7,9-triaza-benzocyclohepten-8-one] | 234 °C | –
O=C1NCCc2ccc(/C=C/CCCN3CCN(c4cccc(Cl)c4Cl)CC3)cc2N1 [Example 64] | 219 to 220 °C | 9.49 nM
O=C1NCCc2ccc(OCCCCN3CCN(c4cccc5c4OCCC5)CC3)nc2N1 (as salt: HCl) [Example 17, 2-[4-(4-Chroman-8-yl-piperazin-1-yl)-butoxy]-5,6,7,9-tetrahydro-1,7,9-triaza-benzocyclohepten-8-one] | 154 to 156 °C | –
O=C1NCCc2ccc(OCCCCN3CCN(c4cccc(Cl)c4Cl)CC3)nc2N1 (as salt: HCl) [Example 14, 2-{4-[4-(2,3-Dichloro-phenyl)-piperazin-1-yl]-butoxy}-5,6,7,9-tetrahydro-1,7,9-triaza-benzocyclohepten-8-one] | 197 to 199 °C | –
CN1CCc2ccc(OCCCCN3CCN(c4cccc(Cl)c4Cl)CC3)cc2NC1=O [Example 25, 8-{4-[4-(2,3-Dichlorophenyl)piperazin-1-yl]butoxy}-3-methyl-1,3,4,5-tetrahydro-benzo[d][1,3]diazepin-2-one] | 139 to 140 °C | –
CC1(C)CCC(=O)Nc2cc(/C=C/CCCN3CCN(c4cccc(Cl)c4Cl)CC3)ccc21 [Example 69] | 108 to 109 °C | 70.9 nM
O=C1NCCc2ccc(OCCCCN3CCN(c4cccc(Cl)c4Cl)CC3)cc2N1 [Example 29, 8-{4-[4-(2,3-Dichlorophenyl)piperazin-1-yl]butoxy}-1,3,4,5-tetrahydrobenzo[d][1,3]diazepin-2-one] | 185 to 186 °C | –
O=C1NCCc2ccc(OCCCCN3CCN(c4cccc5c4OCC5)CC3)nc2N1 [Example 19, 2-{4-[4-(2,3-Dihydro-benzofuran-7-yl)-piperazin-1-yl]-butoxy}-5,6,7,9-tetrahydro-1,7,9-triaza-benzocyclohepten-8-one] | 72 to 73 °C | 0.4 nM
O=C1NCCc2ccc(OCCCCN3CCN(c4cccc5c4CCCC5)CC3)nc2N1 (as salt: HCl) [Example 16, 2-{4-[4-(5,6,7,8-Tetrahydro-naphthalen-1-yl)-piperazin-1-yl]-butoxy}-5,6,7,9-tetrahydro-1,7,9-triaza-benzocyclohepten-8-one] | 185 to 186 °C | –
CC1(C)CCC(=O)Nc2cc(CCCCCN3CCN(c4cccc(Cl)c4Cl)CC3)ccc21 [Example 70, 8-{5-[4-(2,3-Dichlorophenyl)piperazin-1-yl]pentyl}-5,5-dimethyl-1,3,4,5-tetrahydrobenzo[b]azepin-2-one Methanesulfonic Acid] | 168 to 170 °C | 56.5 nM
O=C1NCCc2ccc(OCCCCN3CCN(c4cccc(C5CC5)n4)CC3)cc2N1 [Example 37] | 155 to 156 °C | 1.81 nM
O=C1NCCc2ccc(OCCCCN3CCN(c4cccc5ccccc45)CC3)nc2N1 (as salt: HCl) [Example 15, 2-[4-(4-Naphthalen-1-yl-piperazin-1-yl)-butoxy]-5,6,7,9-tetrahydro-1,7,9-triaza-benzocyclohepten-8-one] | 188 to 190 °C | –
O=C1NCCc2ccc(CCCCCN3CCN(c4cccc(Cl)c4Cl)CC3)cc2N1 [Example 65] | 159 to 161 °C | 4.47 nM
CC1(C)CCC(=O)Nc2cc(OCCCCN3CCN(c4cccc(Cl)c4Cl)CC3)ccc21 [Example 54, 8-{4-[4-(2,3-Dichlorophenyl)piperazin-1-yl]-butoxy}-5,5-dimethyl-1,3,4,5-tetrahydrobenzo[b]azepin-2-one] | 106 to 108 °C | –
CC(C)c1cccc(N2CCN(CCCCOc3ccc4c(c3)NC(=O)NCC4)CC2)n1 [Example 34, 8-{4-[4-(6-Isopropyl-pyridin-2-yl)-piperazin-1-yl]-butoxy}-1,3,4,5-tetrahydro-benzo[d][1,3]diazepin-2-one] | – | 2.68 nM
O=C1NCCc2ccc(OCCCN3CCN(c4cccc(Cl)c4Cl)CC3)cc2N1 [Example 28, 8-{3-[4-(2,3-Dichlorophenyl)piperazin-1-yl]propoxy}-1,3,4,5-tetrahydrobenzo[d][1,3]diazepin-2-one] | 183 to 184 °C | –
O=C1CCCc2ccc(OCCCCN3CCN(c4cccc5c4CCCC5)CC3)nc2N1 [Example 5, 2-{4-[4-(5,6,7,8-Tetrahydro-naphthalen-1-yl)-piperazin-1-yl]-butoxy}-5,6,7,9-tetrahydro-pyrido[2,3-b]azepin-8-one] | – | 2.45 nM
O=C1NCCc2ccc(OCCCCN3CCN(c4ccc(F)cc4Cl)CC3)cc2N1 [Example 35, 8-{4-[4-(2-Chloro-4-fluoro-phenyl)-piperazin-1-yl]-butoxy}-1,3,4,5-tetrahydro-benzo[d][1,3]diazepin-2-one] | – | 3 nM
O=C1NCCc2ccc(OCCCN3CCN(c4cccc5ccccc45)CC3)cc2N1 [Example 43, 8-[3-(4-Naphthalen-1-yl-piperazin-1-yl)-propoxy]-1,3,4,5-tetrahydro-benzo[d][1,3]diazepin-2-one] | – | 3.24 nM
O=C1NCCc2ccc(OCCCCN3CCN(c4cccc5c(F)cccc45)CC3)cc2N1 [Example 40, 8-{4-[4-(5-Fluoro-naphthalen-1-yl)-piperazin-1-yl]-butoxy}-1,3,4,5-tetrahydro-benzo[d][1,3]diazepin-2-one] | – | 11.4 nM
COc1ccc2cccc(N3CCN(CCCCOc4ccc5c(n4)NC(=O)NCC5)CC3)c2c1 [Example 21, 2-{4-[4-(7-Methoxy-naphthalen-1-yl)-piperazin-1-yl]-butoxy}-5,6,7,9-tetrahydro-1,7,9-triaza-benzocyclohepten-8-one] | – | 0.4 nM
CC1(C)CCC(=O)Nc2cc(OCCCCCN3CCN(c4cccc(Cl)c4Cl)CC3)ccc21 [Example 55, 8-{5-[4-(2,3-Dichlorophenyl)piperazin-1-yl]-pentyloxy}-5,5-dimethyl-1,3,4,5-tetrahydrobenzo[b]azepin-2-one] | 128 to 130 °C | –
CC1(C)CNC(=O)Nc2cc(CCCCCN3CCN(c4cccc(Cl)c4Cl)CC3)ccc21 [Example 67, 8-{5-[4-(2,3-Dichlorophenyl)piperazin-1-yl]pentyl}-5,5-dimethyl-1,3,4,5-tetrahydro-benzo[d][1,3]diazepin-2-one Methanesulfonic Acid] | 215 to 218 °C | 25 nM
CC1(C)CCC(=O)Nc2cc(OCCCN3CCN(c4cccc(Cl)c4Cl)CC3)ccc21 [Example 53, 8-{3-[4-(2,3-Dichlorophenyl)piperazin-1-yl]-propoxy}-5,5-dimethyl-1,3,4,5-tetrahydrobenzo[b]azepin-2-one] | 162 to 164 °C | –
CCc1cccc(N2CCN(CCCCOc3ccc4c(c3)NC(=O)NCC4)CC2)n1 [Example 33] | – | 2.83 nM
CC1(C)CCc2ccc(OCCCCN3CCN(c4cccc(Cl)c4Cl)CC3)cc2NC1=O [Example 57, 8-{4-[4-(2,3-Dichlorophenyl)piperazin-1-yl]butoxy}-3,3-dimethyl-1,3,4,5-tetrahydrobenzo[b]azepin-2-one] | 110 to 112 °C | –
Cc1cc(N2CCN(CCCCOc3ccc4c(c3)NC(=O)NCC4)CC2)c(Cl)cc1F [Example 31, 8-{4-[4-(2-Chloro-4-fluoro-5-methyl-phenyl)-piperazin-1-yl]-butoxy}-1,3,4,5-tetrahydro-benzo[d][1,3]diazepin-2-one] | – | 6 nM
